Here are results for eight compounds from PubChem BioAssay (NCI).

Test systems include SNB-19 CNS; UACC-62 melanoma; ACHN renal; M14 melanoma; HOP-92 NSCLC; MOLT-4 leukemia; LOX IMVI melanoma; SF-539 CNS; NCI-H460 lung; T-47D breast.
What all share (assay): NCI-60 cell line screen, 48 h

Several values for one entry are separate records, joined by “and”; a condition that tells them apart may be missing. Equal values may be shown once.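 A five-concentration, 48-hour dose response in 96-well plates underlies each endpoint, interpolated linearly between surrounding concentrations. At the GI50, growth is halved. TGI is the concentration that stops growth completely.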 Bounds are passed on as bounds.

Regarding `Cc1ccc(Sc2cc3c(oc2=O)-c2ccccc2OC3O)cc1` (stereo unspecified), the GI50 with SNB-19 CNS was 25 µM; in the assay on UACC-62 melanoma it was 21.2 µM; in the assay with ACHN renal, 24.8 µM; in the assay on M14 melanoma it was 22.4 µM; with HOP-92 NSCLC, 23.4 µM; in the assay with MOLT-4 leukemia, 13.3 µM. Besides, the GI50 was 18 µM in the assay on LOX IMVI melanoma, 19.3 µM in the assay with SF-539 CNS, 22.4 µM with NCI-H460 lung and 24.8 µM in the assay on T-47D breast. Further, the TGI in the assay with SNB-19 CNS stood at 62.1 µM; with UACC-62 melanoma, 49.8 µM; in the assay with ACHN renal, 57.3 µM; in the assay with M14 melanoma, 43.5 µM; in the assay on HOP-92 NSCLC, 51.9 µM; in the assay on MOLT-4 leukemia it was 34.2 µM. In addition, the TGI with LOX IMVI melanoma is 40 µM; in the assay with SF-539 CNS it was 33.8 µM; in the assay on NCI-H460 lung, 54.5 µM; in the assay on T-47D breast it was 81.2 µM.

Turning to `CCN(CC)C(=S)[S][Bi]([S]C(=S)N(CC)CC)[S]C(=S)N(CC)CC`, the GI50 in the assay with SNB-19 CNS was 1.71 µM; with UACC-62 melanoma, 0.252 µM; with ACHN renal, 0.226 µM; in the assay on M14 melanoma, 0.218 µM; in the assay on HOP-92 NSCLC, 0.136 µM; with MOLT-4 leukemia, 0.0945 µM. Moreover, the GI50 in the assay on LOX IMVI melanoma is 0.261 µM; in the assay on SF-539 CNS it was 0.195 µM; in the assay on NCI-H460 lung, 1.44 µM; in the assay on T-47D breast, 0.122 µM. The TGI is 3.08 µM with SNB-19 CNS; 0.806 µM with UACC-62 melanoma; 0.488 µM in the assay with ACHN renal; 0.485 µM with M14 melanoma; 0.276 µM in the assay with HOP-92 NSCLC; 2.28 µM with MOLT-4 leukemia. Also, the TGI in the assay with LOX IMVI melanoma came out at 0.745 µM; in the assay on SF-539 CNS it was 0.436 µM; in the assay with NCI-H460 lung, 3.07 µM; in the assay on T-47D breast, 0.341 µM.

As for `O=C(CCc1ccc(O)cc1)N/N=C/c1cc(Br)ccc1O`, the GI50 was 6.51 µM in the assay with SNB-19 CNS; 2.44 µM in the assay on UACC-62 melanoma; 3.33 µM in the assay with ACHN renal; 2.75 µM in the assay with M14 melanoma; 4.9 µM in the assay on HOP-92 NSCLC; 2.41 µM with MOLT-4 leukemia. Also, the GI50 in the assay on LOX IMVI melanoma was 2.07 µM; in the assay with SF-539 CNS, 4.03 µM; with NCI-H460 lung, 2.93 µM; in the assay with T-47D breast, 3.74 µM. Besides, the TGI in the assay with SNB-19 CNS was over 100 µM; in the assay on UACC-62 melanoma it was 7.02 µM; with ACHN renal, over 100 µM; with M14 melanoma it was 17.4 µM; in the assay with HOP-92 NSCLC it was 49.3 µM; in the assay on MOLT-4 leukemia, 11.2 µM. Besides, the TGI is 16.8 µM in the assay with LOX IMVI melanoma, 35.4 µM with SF-539 CNS, 14.2 µM in the assay on NCI-H460 lung and 41.6 µM in the assay on T-47D breast.

For `CS(=O)(=O)N(c1cc(-c2ccc3ncnc(Nc4cccc(Cl)c4)c3c2)cnc1Cl)S(C)(=O)=O`, the GI50 with SNB-19 CNS is 0.936 µM; with UACC-62 melanoma, 0.312 µM; in the assay with ACHN renal, 0.412 µM; in the assay on M14 melanoma, 0.598 µM; with HOP-92 NSCLC, 0.158 µM; with MOLT-4 leukemia, 0.334 µM. The GI50 is 0.427 µM in the assay on LOX IMVI melanoma, 0.533 µM in the assay with SF-539 CNS, 0.591 µM in the assay with NCI-H460 lung and 0.043 µM in the assay on T-47D breast. Besides, the TGI was 7.89 µM in the assay on SNB-19 CNS; 2.21 µM with UACC-62 melanoma; over 100 µM in the assay on ACHN renal; 4.4 µM with M14 melanoma; 0.891 µM in the assay with HOP-92 NSCLC; 1.31 µM in the assay with MOLT-4 leukemia. Besides, the TGI in the assay on LOX IMVI melanoma was 2.26 µM; in the assay on SF-539 CNS, 4.33 µM; in the assay on NCI-H460 lung, over 100 µM; with T-47D breast it was 0.618 µM.

Turning to `C/C(=N\NC(=S)N(C)C)c1ccccn1`, the GI50 in the assay with SNB-19 CNS was 0.011 µM; with ACHN renal, 0.00151 µM; with M14 melanoma, 0.00884 µM; with MOLT-4 leukemia it was 0.000297 µM; in the assay on LOX IMVI melanoma, 0.00215 µM; with SF-539 CNS it was 0.0516 µM. In the assay with NCI-H460 lung, the GI50 is 0.0214 µM. The TGI was 16.3 µM in the assay on SNB-19 CNS; 2.38 µM with UACC-62 melanoma; 1.74 µM in the assay with ACHN renal; 11.5 µM with M14 melanoma; 17.8 µM in the assay on HOP-92 NSCLC; 2.12 µM in the assay on MOLT-4 leukemia. Moreover, the TGI in the assay with LOX IMVI melanoma was 0.141 µM and 0.0176 µM; with SF-539 CNS, 2.77 µM; with NCI-H460 lung, 4.09 µM; with T-47D breast, 11.5 µM.

In the case of `CCN(CC)c1ccc(/C=C/C=C2\NC(=O)NC2=O)cc1`, the GI50 in the assay with SNB-19 CNS is 16.1 µM; in the assay on UACC-62 melanoma, 3.95 µM; with ACHN renal it was 7.24 µM; with M14 melanoma, 1.56 µM; in the assay with HOP-92 NSCLC it was 1.74 µM; in the assay with MOLT-4 leukemia it was 6.49 µM. The GI50 with LOX IMVI melanoma is 7.15 µM; in the assay on SF-539 CNS, 2.33 µM; in the assay with NCI-H460 lung, 3.03 µM; in the assay on T-47D breast it was 4 µM. In addition, the TGI in the assay with SNB-19 CNS was over 100 µM; in the assay on UACC-62 melanoma, over 100 µM; with ACHN renal, over 100 µM; in the assay with M14 melanoma, over 100 µM; in the assay on HOP-92 NSCLC, 24.2 µM; with MOLT-4 leukemia it was over 100 µM. The TGI with LOX IMVI melanoma was over 100 µM; in the assay with SF-539 CNS it was 8.6 µM; in the assay on NCI-H460 lung, 16.1 µM; in the assay on T-47D breast, over 100 µM.

In the case of `CCCCCCCCCCCCCCCC1=NC(C)(C)CN1C(C)C`, the GI50 with SNB-19 CNS is 2.04 µM; with UACC-62 melanoma, 1.67 µM; in the assay on ACHN renal, 1.52 µM; in the assay with M14 melanoma, 1.57 µM; in the assay on HOP-92 NSCLC, 1.1 µM; in the assay with MOLT-4 leukemia it was 1.16 µM. Besides, the GI50 in the assay on LOX IMVI melanoma is 1.45 µM; with SF-539 CNS, 1.63 µM; in the assay with NCI-H460 lung, 1.73 µM; in the assay on T-47D breast, 1.93 µM. For the same compound, the TGI in the assay on SNB-19 CNS turned out to be 5.02 µM; with UACC-62 melanoma, 3.14 µM; with ACHN renal, 2.84 µM; in the assay with M14 melanoma it was 2.91 µM; in the assay with HOP-92 NSCLC, 3.45 µM; with MOLT-4 leukemia, 2.73 µM. For the same compound, the TGI in the assay with LOX IMVI melanoma amounted to 2.8 µM; in the assay on SF-539 CNS, 2.98 µM; with NCI-H460 lung, 3.11 µM; in the assay with T-47D breast, 4.54 µM.

For the compound `O=c1oc2c(C(F)(F)F)cccc2cc1-c1csc(Nc2ccc(OCCF)cc2)n1`, the GI50 in the assay with SNB-19 CNS was 0.0873 µM; with UACC-62 melanoma it was 0.0507 µM; with ACHN renal, 0.0609 µM; in the assay on M14 melanoma, 0.0282 µM; in the assay on HOP-92 NSCLC it was 0.0975 µM; with MOLT-4 leukemia, 0.0418 µM. Besides, the GI50 was 0.0467 µM in the assay on LOX IMVI melanoma, 0.0248 µM with SF-539 CNS, 0.0357 µM in the assay on NCI-H460 lung and 0.0797 µM with T-47D breast. The TGI in the assay on SNB-19 CNS is over 56.4 µM; in the assay on UACC-62 melanoma, over 38.9 µM; in the assay on ACHN renal, 13.5 µM; with M14 melanoma, 1.14 µM; with HOP-92 NSCLC it was 3.88 µM; in the assay with MOLT-4 leukemia, over 100 µM. The TGI is over 42.2 µM in the assay with LOX IMVI melanoma, 0.07 µM with SF-539 CNS and over 100 µM with T-47D breast.
